For assay [1], the target named is T1, NAD-dependent protein deacetylase sirtuin-2 (Homo sapiens) (UniProt Q8IXJ6).
T1 sequence (whole entry): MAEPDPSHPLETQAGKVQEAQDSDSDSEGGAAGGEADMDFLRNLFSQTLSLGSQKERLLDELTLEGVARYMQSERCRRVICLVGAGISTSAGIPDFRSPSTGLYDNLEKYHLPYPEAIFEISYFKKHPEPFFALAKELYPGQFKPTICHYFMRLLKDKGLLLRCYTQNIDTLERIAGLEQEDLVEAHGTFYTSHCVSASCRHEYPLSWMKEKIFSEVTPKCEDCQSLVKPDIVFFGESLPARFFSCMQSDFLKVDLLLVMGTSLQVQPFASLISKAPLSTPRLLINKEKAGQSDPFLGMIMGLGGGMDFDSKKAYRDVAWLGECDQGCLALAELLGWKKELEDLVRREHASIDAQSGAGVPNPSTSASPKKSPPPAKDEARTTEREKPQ
The assay can be described thus: Inhibition of SIRT2 at 200 uM.

Assay [2] deals with T2, NAD-dependent protein deacetylase sirtuin-1 (Homo sapiens) (UniProt Q96EB6).
T2 sequence (whole entry): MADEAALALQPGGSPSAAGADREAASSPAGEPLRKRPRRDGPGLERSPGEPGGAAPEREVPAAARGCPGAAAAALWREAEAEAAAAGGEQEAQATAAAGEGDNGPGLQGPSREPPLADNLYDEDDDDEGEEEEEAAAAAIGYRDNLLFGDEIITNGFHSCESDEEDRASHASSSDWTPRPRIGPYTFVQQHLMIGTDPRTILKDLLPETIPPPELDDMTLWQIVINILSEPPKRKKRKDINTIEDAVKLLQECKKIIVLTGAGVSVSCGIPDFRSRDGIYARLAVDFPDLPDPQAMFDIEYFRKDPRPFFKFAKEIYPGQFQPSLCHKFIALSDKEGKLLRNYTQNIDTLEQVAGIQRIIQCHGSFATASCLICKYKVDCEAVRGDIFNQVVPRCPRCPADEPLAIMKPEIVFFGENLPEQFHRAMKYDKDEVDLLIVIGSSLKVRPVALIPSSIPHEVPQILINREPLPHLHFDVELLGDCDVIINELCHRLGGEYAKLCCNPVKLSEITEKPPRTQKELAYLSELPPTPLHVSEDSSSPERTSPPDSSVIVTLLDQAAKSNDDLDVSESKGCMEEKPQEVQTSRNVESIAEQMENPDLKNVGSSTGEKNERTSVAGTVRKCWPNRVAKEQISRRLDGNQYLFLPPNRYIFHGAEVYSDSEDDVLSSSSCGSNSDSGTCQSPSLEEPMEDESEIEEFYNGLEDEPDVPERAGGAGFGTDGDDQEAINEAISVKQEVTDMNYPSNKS
The assay can be described thus: Inhibition of SIRT1 at 200 uM.

For assay [3], the target named is T3, NAD-dependent protein deacetylase sirtuin-2 (Homo sapiens, UniProt Q8IXJ6).
T3 sequence (Q8IXJ6 whole entry): T1 sequence (whole entry)
The assay can be described thus: Inhibition of SIRT2.

The target of assay [4] is T4, NAD-dependent protein deacetylase sirtuin-1 (Homo sapiens, UniProt Q96EB6).
T4 sequence (Q96EB6 whole entry): T2 sequence (whole entry)
As to the kind of experiment: Inhibition of SIRT1.

For the compound `CC(C)(NC(=O)/C=C/c1ccc(O)cc1)C(=O)NCCc1c[nH]c2ccccc12`, the inhibition in assay [1] was 83.3%; in assay [2] it was 6.6%. For the same compound, the IC50 in assay [3] turned out to be 50 µM.
Taken in the same sequence, the figures for `C[C@H](NC(=O)/C=C/c1ccc(O)cc1)C(=O)NCCc1c[nH]c2ccccc12` were 88.6%, 17.7% and 47 µM.
Consider `C[C@@H](NC(=O)/C=C/c1ccc(O)cc1)C(=O)NCCc1c[nH]c2ccccc12`, for which the inhibition in assay [1] stood at 8.5%; in assay [2] it was 3.2%.
For the compound `CC(C)(NC(=O)/C=C/c1ccc(O)cc1)C(=O)NCCc1c[nH]c2ccc(F)cc12`, the inhibition in assay [1] was 67.5%; in assay [2], 7%. In assay [3], this compound registered an IC50 of 80 µM.
On to `NC(=O)C1CCCc2c1[nH]c1ccc(Cl)cc21` (stereo unspecified), for which the inhibition stood at 89.4% in assay [1] and 98.9% in assay [2].
Consider `O=C(/C=C/c1ccc(O)cc1)NCC(=O)NCCc1c[nH]c2ccccc12`, for which the inhibition was found to be 44.3% in assay [1] and 9.9% in assay [2].
The matching figures for `CC(C)(NC(=O)/C=C/c1ccc(OCc2ccccc2)cc1)C(=O)NCCc1c[nH]c2ccccc12`: 32.6% and 10.2%.
`O=C(/C=C/c1ccc(OCc2ccc(F)cc2)cc1)NC1(C(=O)NCCc2c[nH]c3ccc(F)cc23)CCNCC1` displayed an inhibition in assay [2] of 94.1%. For the same compound, in assay [4], the midpoint of inhibition, the IC50, lay at 73 µM.
On to `COc1ccc(/C=C/C(=O)NC(C)(C)C(=O)NCCc2c[nH]c3ccccc23)cc1`, for which the figures for the inhibition in assay [1] and in assay [2] were 55.4% and 10.3%, respectively. This compound also returned an IC50 in assay [3] of 99 µM.
In the case of `O=C(/C=C/c1ccc(OCc2ccccc2)cc1)NC1(C(=O)NCCc2c[nH]c3ccccc23)CCNCC1`, the inhibition stood at 79.1% in assay [1] and 97% in assay [2]. Moreover, the IC50 in assay [3] was found to be 63 µM; in assay [4] it was 52 µM.

As usually defined, the inhibition is the change of the read-out against control, counted positive when it falls. A high value points to a strong effect. What is called IC50 is the point on the concentration scale where inhibition reaches its midpoint. Low readings indicate greater potency, high ones weaker potency.
